Laboratory results: patent US8399502B2, “Analogs of indole-3-carbinol and their use as agents against infection” (priority 2008, dated 2013)
Converted amounts (≈) assume the structure as drawn.

Legend:
Assay in all cases: microbe, parasite or virus in culture
Type in all cases: cell-based
[1] = test system: Francisella tularensis (FT; Gram-negative); details: read-out: MIC FT
[2] = test system: Bacillus anthracis (BA; Gram-positive); details: read-out: MIC BA
[3] = test system: Yersinia pestis (YP; Gram-negative); details: read-out: MIC YP
[4] = test system: Brucella abortus (BAB; Gram-negative); details: read-out: MIC BAB
[5] = test system: Burkholderia mallei (BM; Gram-negative); details: read-out: MIC BM
[6] = test system: Burkholderia pseudomallei (BP; Gram-negative); details: read-out: MIC BP

| Compound | MIC [1] | MIC [2] | MIC [3] | MIC [4] | MIC [5] | MIC [6] |
| --- | --- | --- | --- | --- | --- | --- |
| Fc1ccc2[nH]c3c(OC[C@H]4CCCN4)c4[nH]c5ccc(F)cc5c4cc3c2c1 | 0.5 µg/mL (≈ 1.28 µM) | 0.5 µg/mL (≈ 1.28 µM) | 2 µg/mL (≈ 5.11 µM) | 0.5 µg/mL (≈ 1.28 µM) | 8 µg/mL (≈ 20.4 µM) | 8 µg/mL (≈ 20.4 µM) |
| N=C(N)NCCCOc1c2[nH]c3ccc(Cl)cc3c2cc2c1[nH]c1ccc(Cl)cc12 [drawing 217] | 0.25 µg/mL (≈ 0.568 µM) | 0.25 µg/mL (≈ 0.568 µM) | 1 µg/mL (≈ 2.27 µM) | 0.25 µg/mL (≈ 0.568 µM) | 1 µg/mL (≈ 2.27 µM) | 2 µg/mL (≈ 4.54 µM) |
| Cc1c2[nH]c3ccc(F)cc3c2cc2c1[nH]c1ccc(F)cc12 | 0.5 µg/mL (≈ 1.63 µM) | 0.5 µg/mL (≈ 1.63 µM) | > 16 µg/mL | 1 µg/mL (≈ 3.26 µM) | > 16 µg/mL | > 16 µg/mL |
| CCOC(=O)c1ccc2[nH]c3c(OCCN)c4[nH]c5ccc(C(=O)OCC)cc5c4cc3c2c1 | 1 µg/mL (≈ 2.18 µM) | 2 µg/mL (≈ 4.35 µM) | > 8 µg/mL | 1 µg/mL (≈ 2.18 µM) | > 8 µg/mL | > 8 µg/mL |
| Fc1ccc2[nH]c3c(OC4CCNCC4)c4[nH]c5ccc(F)cc5c4cc3c2c1 | ≤ 0.25 µg/mL | ≤ 0.25 µg/mL | 8 µg/mL (≈ 20.4 µM) | ≤ 0.25 µg/mL | 4 µg/mL (≈ 10.2 µM) | 8 µg/mL (≈ 20.4 µM) |
| NCCCOc1c2[nH]c3ccc(F)cc3c2cc2c1[nH]c1ccc(F)cc12 | 0.5 µg/mL (≈ 1.37 µM) | 0.5 µg/mL (≈ 1.37 µM) | 2 µg/mL (≈ 5.47 µM) | 0.5 µg/mL (≈ 1.37 µM) | 8 µg/mL (≈ 21.9 µM) | 8 µg/mL (≈ 21.9 µM) |
| Clc1ccc2[nH]c3c(OCC4CCCN4)c4[nH]c5ccc(Cl)cc5c4cc3c2c1 (stereo not shown) | 0.5 µg/mL (≈ 1.18 µM) | 1 µg/mL (≈ 2.36 µM) | 1 µg/mL (≈ 2.36 µM) | 0.5 µg/mL (≈ 1.18 µM) | 4 µg/mL (≈ 9.43 µM) | 8 µg/mL (≈ 18.9 µM) |
| Clc1ccc2[nH]c3c(OCCCNCc4c[nH]c5ccccc45)c4[nH]c5ccc(Cl)cc5c4cc3c2c1 | 1 µg/mL (≈ 1.9 µM) | 1 µg/mL (≈ 1.9 µM) | 2 µg/mL (≈ 3.79 µM) | 0.5 µg/mL (≈ 0.948 µM) | > 8 µg/mL | > 8 µg/mL |
| CN(C)CC#Cc1c2[nH]c3ccc(F)cc3c2cc2c1[nH]c1ccc(F)cc12 [drawing 210] | 0.25 µg/mL (≈ 0.67 µM) | 0.5 µg/mL (≈ 1.34 µM) | 2 µg/mL (≈ 5.36 µM) | 0.25 µg/mL (≈ 0.67 µM) | 8 µg/mL (≈ 21.4 µM) | > 8 µg/mL |
| NCCCOc1c2[nH]c3ccc(Cl)cc3c2cc2c1[nH]c1ccc(Cl)cc12 | 0.25 to 0.5 µg/mL (≈ 0.628 to 1.26 µM) | 0.5 µg/mL (≈ 1.26 µM) | 2 µg/mL (≈ 5.02 µM) | 0.5 µg/mL (≈ 1.26 µM) | 4 µg/mL (≈ 10 µM) | 8 µg/mL (≈ 20.1 µM) |
| N[C@H]1CCN(CCCOc2c3[nH]c4ccc(Cl)cc4c3cc3c2[nH]c2ccc(Cl)cc23)C1 | 0.5 µg/mL (≈ 1.07 µM) | 0.5 µg/mL (≈ 1.07 µM) | 2 µg/mL (≈ 4.28 µM) | 0.25 µg/mL (≈ 0.535 µM) | > 8 µg/mL | > 8 µg/mL |
| OC1CCN(CCCOc2c3[nH]c4ccc(Cl)cc4c3cc3c2[nH]c2ccc(Cl)cc23)CC1 [drawing 229] | 0.25 µg/mL (≈ 0.518 µM) | 0.25 µg/mL (≈ 0.518 µM) | 2 µg/mL (≈ 4.15 µM) | 0.25 µg/mL (≈ 0.518 µM) | 8 µg/mL (≈ 16.6 µM) | > 8 µg/mL |
| Nc1nnnn1CCCOc1c2[nH]c3ccc(Cl)cc3c2cc2c1[nH]c1ccc(Cl)cc12 | 1 µg/mL (≈ 2.14 µM) | 0.5 µg/mL (≈ 1.07 µM) | > 8 µg/mL | 0.5 µg/mL (≈ 1.07 µM) | > 8 µg/mL | > 8 µg/mL |
| NC1CCN(CCCOc2c3[nH]c4ccc(F)cc4c3cc3c2[nH]c2ccc(F)cc23)CC1 | 0.125 to 0.5 µg/mL (≈ 0.279 to 1.11 µM) | 0.5 µg/mL (≈ 1.11 µM) | 2 µg/mL (≈ 4.46 µM) | 0.5 µg/mL (≈ 1.11 µM) | – | – |
| NCCOc1c2[nH]c3ccc(F)cc3c2cc2c1[nH]c1ccc(F)cc12 | 2 µg/mL (≈ 5.69 µM) | 4 µg/mL (≈ 11.4 µM) | 4 µg/mL (≈ 11.4 µM) | 1 µg/mL (≈ 2.85 µM) | 8 µg/mL (≈ 22.8 µM) | 16 µg/mL (≈ 45.5 µM) |
| N[C@H]1CCN(CCCOc2c3[nH]c4ccc(F)cc4c3cc3c2[nH]c2ccc(F)cc23)C1 | 0.5 µg/mL (≈ 1.15 µM) | 1 µg/mL (≈ 2.3 µM) | 4 µg/mL (≈ 9.21 µM) | 1 µg/mL (≈ 2.3 µM) | – | – |
| Clc1ccc2[nH]c3c(OCC4CCNCC4)c4[nH]c5ccc(Cl)cc5c4cc3c2c1 | 0.5 µg/mL (≈ 1.14 µM) | 0.5 µg/mL (≈ 1.14 µM) | 2 µg/mL (≈ 4.56 µM) | ≤ 0.25 µg/mL | 8 µg/mL (≈ 18.2 µM) | > 8 µg/mL |

| Compound | MIC [1] | MIC [2] | MIC [3] | MIC [4] | MIC [5] | MIC [6] |
| --- | --- | --- | --- | --- | --- | --- |
| CC(CN(C)C)Oc1c2[nH]c3ccc(F)cc3c2cc2c1[nH]c1ccc(F)cc12 (stereo not shown) | 0.5 µg/mL (≈ 1.27 µM) | 1 µg/mL (≈ 2.54 µM) | 16 µg/mL (≈ 40.7 µM) | 0.5 µg/mL (≈ 1.27 µM) | – | – |
| Nc1nc(N)n(CCCOc2c3[nH]c4ccc(Cl)cc4c3cc3c2[nH]c2ccc(Cl)cc23)n1 | 1 µg/mL (≈ 2.08 µM) | 0.5 to 1 µg/mL (≈ 1.04 to 2.08 µM) | 8 µg/mL (≈ 16.7 µM) | 1 µg/mL (≈ 2.08 µM) | > 8 µg/mL | > 8 µg/mL |
| NC1CCN(CCCOc2c3[nH]c4ccc(Cl)cc4c3cc3c2[nH]c2ccc(Cl)cc23)CC1 | 1 µg/mL (≈ 2.08 µM) | 2 µg/mL (≈ 4.15 µM) | 4 µg/mL (≈ 8.31 µM) | 1 µg/mL (≈ 2.08 µM) | 16 µg/mL (≈ 33.2 µM) | > 16 µg/mL |
| Clc1ccc2[nH]c3c(OCCCNC4CCNCC4)c4[nH]c5ccc(Cl)cc5c4cc3c2c1 | 1 µg/mL (≈ 2.08 µM) | 1 µg/mL (≈ 2.08 µM) | 2 µg/mL (≈ 4.15 µM) | 1 µg/mL (≈ 2.08 µM) | 4 µg/mL (≈ 8.31 µM) | 8 µg/mL (≈ 16.6 µM) |
| CN(C)CCOc1c2[nH]c3ccc(F)cc3c2cc2c1[nH]c1ccc(F)cc12 [drawing 195] | 0.25 µg/mL (≈ 0.659 µM) | 0.5 µg/mL (≈ 1.32 µM) | 8 µg/mL (≈ 21.1 µM) | 0.5 µg/mL (≈ 1.32 µM) | 4 µg/mL (≈ 10.5 µM) | 8 µg/mL (≈ 21.1 µM) |
| Fc1ccc2[nH]c3c(OCCN4CCCC4)c4[nH]c5ccc(F)cc5c4cc3c2c1 | 0.5 µg/mL (≈ 1.23 µM) | 1 µg/mL (≈ 2.47 µM) | 8 µg/mL (≈ 19.7 µM) | 1 µg/mL (≈ 2.47 µM) | > 16 µg/mL | > 16 µg/mL |
| C/N=C(\NC)NCCCOc1c2[nH]c3ccc(Cl)cc3c2cc2c1[nH]c1ccc(Cl)cc12 | 1 µg/mL (≈ 2.13 µM) | 0.5 µg/mL (≈ 1.07 µM) | 1 µg/mL (≈ 2.13 µM) | 0.5 µg/mL (≈ 1.07 µM) | 4 µg/mL (≈ 8.54 µM) | 4 µg/mL (≈ 8.54 µM) |
| Clc1ccc2[nH]c3c(OCCCn4cnnc4)c4[nH]c5ccc(Cl)cc5c4cc3c2c1 | 0.5 µg/mL (≈ 1.11 µM) | 0.25 µg/mL (≈ 0.555 µM) | – | – | – | – |
| NCCOc1c2[nH]c3ccc(Cl)cc3c2cc2c1[nH]c1ccc(Cl)cc12 | 0.5 µg/mL (≈ 1.3 µM) | 2 µg/mL (≈ 5.2 µM) | 2 µg/mL (≈ 5.2 µM) | 0.5 µg/mL (≈ 1.3 µM) | 4 µg/mL (≈ 10.4 µM) | 8 µg/mL (≈ 20.8 µM) |
| C[N+](C)(C)CCOc1c2[nH]c3ccc(F)cc3c2cc2c1[nH]c1ccc(F)cc12.[I-] | 1 µg/mL | 0.5 µg/mL | > 8 µg/mL | 2 µg/mL | 8 µg/mL | 8 µg/mL |
| Clc1ccc2[nH]c3c(OCCCn4cncn4)c4[nH]c5ccc(Cl)cc5c4cc3c2c1 | 0.25 µg/mL (≈ 0.555 µM) | 0.5 µg/mL (≈ 1.11 µM) | – | – | – | – |
| CC(C)/N=C(/NCCCOc1c2[nH]c3ccc(F)cc3c2cc2c1[nH]c1ccc(F)cc12)NC(C)C | 1 µg/mL (≈ 2.03 µM) | 0.5 µg/mL (≈ 1.02 µM) | 4 µg/mL (≈ 8.14 µM) | 1 µg/mL (≈ 2.03 µM) | – | – |
| CCN(CC)CCOc1c2[nH]c3ccc(F)cc3c2cc2c1[nH]c1ccc(F)cc12 | 0.5 µg/mL (≈ 1.23 µM) | 1 µg/mL (≈ 2.45 µM) | > 16 µg/mL | 1 µg/mL (≈ 2.45 µM) | – | – |
| CN(C)C1CCN(CCOc2c3[nH]c4ccc(F)cc4c3cc3c2[nH]c2ccc(F)cc23)C1 (stereo not shown) | 0.5 µg/mL (≈ 1.11 µM) | 1 µg/mL (≈ 2.23 µM) | > 8 µg/mL | 0.5 µg/mL (≈ 1.11 µM) | – | – |
| NC1CCN(CCOc2c3[nH]c4ccc(Cl)cc4c3cc3c2[nH]c2ccc(Cl)cc23)CC1 | 0.5 µg/mL (≈ 1.07 µM) | 2 µg/mL (≈ 4.28 µM) | 16 µg/mL (≈ 34.2 µM) | 1 µg/mL (≈ 2.14 µM) | – | – |
| Clc1ccc2[nH]c3c(OCCCNCc4cnc[nH]4)c4[nH]c5ccc(Cl)cc5c4cc3c2c1 | 1 µg/mL (≈ 2.09 µM) | 0.5 µg/mL (≈ 1.05 µM) | 4 µg/mL (≈ 8.36 µM) | 0.5 µg/mL (≈ 1.05 µM) | – | – |
| OC1CN(CCCOc2c3[nH]c4ccc(Cl)cc4c3cc3c2[nH]c2ccc(Cl)cc23)C1 | 0.5 µg/mL (≈ 1.1 µM) | 0.5 µg/mL (≈ 1.1 µM) | 4 µg/mL (≈ 8.8 µM) | 1 µg/mL (≈ 2.2 µM) | – | – |
